Assay results from US20250144049A1, “METHODS, COMPOSITIONS, AND USES RELATED TO THE TREATMENT AND PREVENTION OF LEIGH SYNDROME” (Stealth BioTherapeutics Inc., priority 2023, published 2025).

Columns and labels:
[1] = pontocerebellar hypoplasia type 6, Kahn-Kirby et al.; cited from earlier work
[2] = system: Leigh (GM03672) fibroblasts; assay: Erastin cytoprotection assay, Leigh fibroblasts; format: cell-based, human; details: 24 hours
Method: (§1) Briefly, Healthy (GM08402) or Leigh (GM03672) fibroblasts were resuspended in assay medium, seeded at 10,000 cells per well in a clear, tissue cultured-treated, 96-well plate, and incubated at 37° C. overnight. Following the incubation, supernatant was manually aspirated from wells, taking care not to disrupt cells. Fibroblasts were co-treated in a final volume of 100 μL with 2 μM erastin (Millipore Corp., Cat #), 250 μM ferric ammonium citrate (FAC), 50 µM ascorbic acid (AA), and a titration of one of each of Compounds 1 to 4 or Vatiquinone ranging from 10 to 1000 nM. Following another 24-hour incubation at 37° C., cell viability was measured using the CellTiter-Glo Luminescent Cell Viability Kit (ProMega) per Manufacturer's instructions. Luminescence units were quantified by GEN5 software on a BioTek SYNERGY neo2 plate reader (LUM filter).
(§2) Briefly, erastin, like RSL3, is known to induce ferroptosis. […] Erastin was incubated with cell fibroblasts for 24 hours to induce ferroptosis. Cells were co-treated with each of Compounds 1 to 4, or Vatiquinone as the test articles. Test articles were administered at a range of concentrations to derive a curve. Cell viability was determined using a commercially available kit that measures ATP production. […] An increase in cell viability as determined by the assay is considered to be protective against ferroptosis.

[3] = system: Leigh syndrome (GM03672) fibroblasts; assay: RSL3 cytoprotection assay, Leigh fibroblasts; format: cell-based, human; details: FIG. 9
Method: (§3) Patient fibroblasts were acquired from Coriell Institute for Medical Research (Camden, NJ, USA). GM03672 is an untransformed fibroblast cell line from a Leigh syndrome patient carrying an unknown mutation. GM08402 is an untransformed fibroblast from an apparently healthy individual. Cells were cultured at 37° C. at 5% CO2 in Eagle's Minimum Essential Medium (MEM, Corning), which was supplemented with Earle's salts and non-essential amino acids, 15% qualified fetal bovine serum, and 1% penicillin/streptomycin ([…]) to yield “Complete MEM.”
(§4) To initiate the RSL3 cytoprotection experiment, Healthy (GM08402) and Leigh syndrome (GM03672) fibroblasts were resuspended in Complete MEM. Cells were seeded at 10,000 cells per well in a clear, tissue cultured-treated, 96-well plate and incubated at 37° C. overnight. Following the incubation, supernatant was manually aspirated, taking care not to disrupt cells. […]. Luminescence units were quantified by GEN5 software on a BioTek SYNERGY neo2 plate reader (LUM filter).
(§5) RSL3 is an inhibitor of the enzyme glutathione peroxidase 4 (GPX4), which decreases lipid peroxides. RSL3 inhibition of GPX4 induces ferroptosis through iron-dependent accumulation of lipid ROS. In this assay, Healthy or Leigh fibroblasts were treated for 4 hours with RSL3 to induce ferroptosis or left untreated. Endogenous ATP levels were measured as an indicator of cellular viability using a commercially available kit (CellTiter-Glo® 2.0 Cell Viability Assay (Promega)).
(§6) […]. […] Briefly, ferroptosis was induced with 1 μM RSL3 in healthy fibroblast cells and 375 nM RSL3 in fibroblasts from a patient with Leigh syndrome.
(§7) A preliminary experiment was performed to determine the effect of RSL3 injury on the fibroblasts of a healthy individual (cell line: GM08402) and the fibroblasts of a patient diagnosed with Leigh syndrome (cell line: GM03672).

[4] = system: Healthy (GM08402) fibroblasts; assay: RSL3 cytoprotection assay, healthy fibroblasts; format: cell-based, human; details: 1 μM RSL3, 4 hours, FIG. 8
Method: as §3, §4, §5, §6, §7

[5] = system: rotenone-inhibited Complex I; assay: Complex I-bypass assay (high-resolution respirometry, O2 consumption); format: cell-based, human; details: concentrations from 125 nM to 8 μM
Method: All high-resolution respirometry experiments were conducted using the Oroboros O2k-Fluorespirometer (Oroboros, Innsbruck, Austria). The Oroboros O2k-Fluorespirometer was calibrated daily using the air calibration protocol on DatLab 7.4 (Oroboros, Innsbruck, Austria). Prior to each experiment requiring the fluorescence module, the AmpR calibration protocol from DatLab 7.4 was used to calibrate the fluorescence signal. Initial data analysis, including setting of marks, was performed using DatLab 7.4.
Complex I-bypass activity was assessed using HRR to measure O2 consumption. […] Values were exported and analyzed using GraphPad Prism 9. […]
Statistical analysis was performed using GraphPad Prism 9. […] RET Assay data were analyzed by 2-way ANOVA using a p-value of 0.05.
Using this assay, the ability of Compounds 1 to 4 and Vatiquinone to bypass rotenone-inhibited Complex I was determined. […] The ability of Compounds 1 to 4 and Vatiquinone to “bypass” Complex I and restore OXPHOS is measured by an increase in oxygen consumption rate following addition of the compound to the chamber.
In executing this assay, in each instance, fibroblasts are added to each chamber of the Oroboros Oxygraph-2K (the “O2k”). […] The addition of rotenone is expected to cause a marked reduction of OXPHOS as measured by a decreased rate of oxygen consumption. […]

[6] = tested in the clinic; cited from earlier work
[7] = system: Healthy (GM08402) fibroblasts; assay: Erastin cytoprotection assay, healthy fibroblasts; format: cell-based, human; details: 24 hours
Method: as §1, §2

[8] = 2 μM erastin + FAC + AA, compound 10-1000 nM

CC(C)=CCC/C(C)=C/CC/C(C)=C/CC[C@@](C)(O)CCC1=C(C)C(=O)C(C)=C(C)C1=O [Vatiquinone, reference compound]
seizure frequency and morbidity [1]: decrease seizure frequency and morbidity | protective effect against erastin induced ferroptosis (cell viability, ATP) [2, 8]: protective effect | protective effect compared among test articles ([2]; 2 μM erastin, FIG. 13): superior in its protective effect as compared with Compounds 1 and 4 | protective effect against RSL3 induced ferroptosis (cell viability, ATP) ([3]; 375 nM RSL3, 4 hours, compound 10-1000 nM): protective effect | anti-ferroptosis properties compared among test articles ([3]; RSL3, 4 hours): roughly equivalent | anti-ferroptosis properties compared among test articles [4]: roughly equivalent | protective effect against RSL3 induced ferroptosis (cell viability, ATP) ([4]; compound 10-1000 nM): protective effect | Complex I by-pass activity [5]: inactive | clinical results in Leigh syndrome [6]: disappointing | protective effect against erastin induced ferroptosis (cell viability, ATP) [7, 8]: protective effect | protective effect compared among test articles ([7]; 2 μM erastin, FIG. 12): about equally protective
